Source: patent US12612386B2, “Heteroaryl-triazole compounds as pesticides” (Bayer Aktiengesellschaft, priority 2020, dated 2026)

Tested on: adult mosquitoes Aedes aegypti strain MONHEIM
Assay: Aedes aegypti test (AEDSAE surface treatment & contact assay)
Assay type: in vivo
Settings: surface concentration 4 mg/m^2, 30 min exposure, 24 hours after contact, read-out: efficacy (mortality)
Method: Aedes aegypti Test (AEDSAE Surface Treatment & Contact Assay)
(§1) Solvent: Aceton+2000 ppm rapeseed oil methyl ester (RME)
(§2) This solution is pipetted onto a glazed tile and after evaporation of the acetone, adult mosquitoes of the species Aedes aegypti strain MONHEIM are placed onto the dried surface. The exposure time is 30 minutes. Mortality in percent (%) is determined 24 hours after contact of the insects to the treated surface. 100% mortality means that all tested insects are dead, whereas 0% means that no insect died.

SMILES	mortality at 4 mg/m2 [%]
C[C@H](NC(=O)c1cc(Br)cc(OC(F)F)c1)c1ncnn1-c1cc(C(N)=O)ncn1 [I-51]	80 to 100
CNC(=O)c1cc(-n2ncnc2[C@H](C)NC(=O)c2cc(Cl)cc(OC(F)(F)F)c2)ncn1 [I-73]	80 to 100

Same assay, conditions: surface concentration 20 mg/m^2, 30 min exposure, 24 hours after contact, read-out: efficacy (mortality)

SMILES	mortality at 20 mg/m2 [%]
C[C@H](NC(=O)c1cc(Br)cc(OC(F)F)c1)c1ncnn1-c1cc(C(N)=O)ncn1 [I-51]	80 to 100
CNC(=O)c1cc(-n2ncnc2[C@H](C)NC(=O)c2cc(Cl)cc(OC(F)(F)F)c2)ncn1 [I-73]	80 to 100

Tested on: green peach aphid (Myzus persicae)
Assay: Myzus persicae spray test (MYZUPE)
Assay type: in vivo
Settings: 120 h, 100 g/ha, after 5 days
Outline: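 Percent aphid kill, with 0% meaning none killed, was read 5 days after spraying. The preparation (acetone–DMF solvent, water with 1000 ppm emulsifier) was applied to Brassica pekinensis leaf disks carrying mixed-instar green peach aphids.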

SMILES	mortality at 100 g/ha [%]
C[C@H](NC(=O)c1cc(Br)cc(OC(F)F)c1)c1ncnn1-c1cc(C(N)=O)ncn1 [I-51]	90
CNC(=O)c1cc(-n2ncnc2[C@H](C)NC(=O)c2cc(Cl)cc(OC(F)(F)F)c2)ncn1 [I-73]	70

Tested on: larvae of the southern green stink bug (Nezara viridula)
Assay: whole plant or invertebrate
Assay type: in vivo
Settings: 96 h
Outline: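 Percent mortality of southern green stink bug larvae was recorded at day 4, with 100% meaning all dead. The larvae were placed on barley sprayed with the test solution. That solution was prepared from acetone/dimethylformamide concentrate diluted in emulsifier-containing water (1000 ppm).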

SMILES	mortality at 100 g/ha [%]	mortality at 500 g/ha [%]
C[C@H](NC(=O)c1cc(Br)cc(OC(F)F)c1)c1ncnn1-c1cc(C(N)=O)ncn1 [I-51]	100	100
CNC(=O)c1cc(-n2ncnc2[C@H](C)NC(=O)c2cc(Cl)cc(OC(F)(F)F)c2)ncn1 [I-73]	–	100

Tested on: cattle tick larvae (Rhipicephalus microplus), strain Parkhurst, resistant against synthetic pyrethroids
Assay: Rhipicephalus (Boophilus) microplus in-vitro contact test, larval cattle tick
Assay type: in vivo
Settings: 5 μg/cm^2 (=500 g/ha), after 48 hours
Outline: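 Larvae exposed by contact to a dried acetone film on glass; a 900 ppm solution yields 5 μg/cm^2. Scoring after 48 h at 27° C. counts dead plus moribund larvae as efficacy.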

SMILES	efficacy (larvae dead or moribund) [%]
C[C@H](NC(=O)c1cc(Br)cc(OC(F)F)c1)c1ncnn1-c1cc(C(N)=O)ncn1 [I-51]	100
CNC(=O)c1cc(-n2ncnc2[C@H](C)NC(=O)c2cc(Cl)cc(OC(F)(F)F)c2)ncn1 [I-73]	100

Tested on: adult mosquitoes Culex quinquefasciatus strain P00
Assay: Culex quinquefasciatus test (CULXFA surface treatment & contact assay)
Assay type: in vivo
Settings: surface concentration 4 mg/m^2, 30 min exposure, 24 hours after contact, read-out: efficacy (mortality)
Method: Culex quinquefasciatus Test (CULXFA Surface Treatment & Contact Assay)
as §1
as §2, with “Culex quinquefasciatus” for “Aedes aegypti”, “P00” for “MONHEIM”

SMILES	mortality at 4 mg/m2 [%]
C[C@H](NC(=O)c1cc(Br)cc(OC(F)F)c1)c1ncnn1-c1cc(C(N)=O)ncn1 [I-51]	80 to 100
CNC(=O)c1cc(-n2ncnc2[C@H](C)NC(=O)c2cc(Cl)cc(OC(F)(F)F)c2)ncn1 [I-73]	80 to 100

Same assay, conditions: surface concentration 20 mg/m^2, 30 min exposure, 24 hours after contact, read-out: efficacy (mortality)

SMILES	mortality at 20 mg/m2 [%]
C[C@H](NC(=O)c1cc(Br)cc(OC(F)F)c1)c1ncnn1-c1cc(C(N)=O)ncn1 [I-51]	80 to 100
CNC(=O)c1cc(-n2ncnc2[C@H](C)NC(=O)c2cc(Cl)cc(OC(F)(F)F)c2)ncn1 [I-73]	80 to 100

Tested on: brown planthopper (Nilaparvata lugens)
Assay: Nilaparvata lugens spray test
Assay type: in vivo
Settings: 96 h
Outline: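 Rice plants (Oryza sativa) sprayed with compound formulated in acetone/DMF with alkylarylpolyglycol ether emulsifier (1000 ppm in diluting water), then infested with planthoppers. Mortality (%) scored after 4 days; 100% = all insects killed, 0% = none killed.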

SMILES	mortality at 500 g/ha [%]
C[C@H](NC(=O)c1cc(Br)cc(OC(F)F)c1)c1ncnn1-c1cc(C(N)=O)ncn1 [I-51]	100
CNC(=O)c1cc(-n2ncnc2[C@H](C)NC(=O)c2cc(Cl)cc(OC(F)(F)F)c2)ncn1 [I-73]	100

Tested on: fall armyworm larvae (Spodoptera frugiperda)
Assay: whole plant or invertebrate
Assay type: in vivo
Settings: 168 h
Outline: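 Percent kill of Spodoptera frugiperda caterpillars, read 7 days after infestation of dried, spray-treated Zea mays leaf pieces. Spray preparation: compound in acetone plus dimethylformamide, diluted with emulsifier-containing water.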

SMILES	mortality at 100 g/ha [%]
C[C@H](NC(=O)c1cc(Br)cc(OC(F)F)c1)c1ncnn1-c1cc(C(N)=O)ncn1 [I-51]	100
CNC(=O)c1cc(-n2ncnc2[C@H](C)NC(=O)c2cc(Cl)cc(OC(F)(F)F)c2)ncn1 [I-73]	100

Tested on: adult flies Musca domestica strain WHO-N
Assay: Musca domestica test (MUSCDO surface treatment & contact assay)
Assay type: in vivo
Settings: surface concentration 4 mg/m^2, 30 min exposure, 24 hours after contact, read-out: efficacy (mortality)
Method: Musca domestica Test (MUSCDO Surface Treatment & Contact Assay)
as §1
as §2, with “flies” for “mosquitoes”, “Musca domestica” for “Aedes aegypti”, “WHO-N” for “MONHEIM”

SMILES	mortality at 4 mg/m2 [%]
C[C@H](NC(=O)c1cc(Br)cc(OC(F)F)c1)c1ncnn1-c1cc(C(N)=O)ncn1 [I-51]	80 to 100
CNC(=O)c1cc(-n2ncnc2[C@H](C)NC(=O)c2cc(Cl)cc(OC(F)(F)F)c2)ncn1 [I-73]	80 to 100

Same assay, conditions: surface concentration 20 mg/m^2, 30 min exposure, 24 hours after contact, read-out: efficacy (mortality)

SMILES	mortality at 20 mg/m2 [%]
C[C@H](NC(=O)c1cc(Br)cc(OC(F)F)c1)c1ncnn1-c1cc(C(N)=O)ncn1 [I-51]	80 to 100
CNC(=O)c1cc(-n2ncnc2[C@H](C)NC(=O)c2cc(Cl)cc(OC(F)(F)F)c2)ncn1 [I-73]	80 to 100

Tested on: adult animals Blattella germanica strain PAULINIA
Assay: Blattella germanica test (BLTTGE surface treatment & contact assay)
Assay type: in vivo
Settings: surface concentration 4 mg/m^2, 30 min exposure, 24 hours after contact, read-out: efficacy (mortality)
Method: Blattella germanica Test (BLTTGE Surface Treatment & Contact Assay)
as §1
In order to produce a sufficient, active ingredient containing solution it is necessary to solve the test compound in the solvent-mix (acetone at 2 mg/ml/RME 2000 ppm). This solution is pipetted onto a glazed tile and after evaporation of the acetone, adult animals of the species Blattella germanica strain PAULINIA are placed onto the dried surface. The exposure time is 30 minutes.
Mortality in percent (%) is determined 24 hours after contact of the insects to the treated surface. 100% mortality means that all tested insects are dead, whereas 0% means that no insect died.

SMILES	mortality at 4 mg/m2 [%]
C[C@H](NC(=O)c1cc(Br)cc(OC(F)F)c1)c1ncnn1-c1cc(C(N)=O)ncn1 [I-51]	80 to 100
CNC(=O)c1cc(-n2ncnc2[C@H](C)NC(=O)c2cc(Cl)cc(OC(F)(F)F)c2)ncn1 [I-73]	80 to 100

Same assay, conditions: surface concentration 20 mg/m^2, 30 min exposure, 24 hours after contact, read-out: efficacy (mortality)

SMILES	mortality at 20 mg/m2 [%]
C[C@H](NC(=O)c1cc(Br)cc(OC(F)F)c1)c1ncnn1-c1cc(C(N)=O)ncn1 [I-51]	80 to 100
CNC(=O)c1cc(-n2ncnc2[C@H](C)NC(=O)c2cc(Cl)cc(OC(F)(F)F)c2)ncn1 [I-73]	80 to 100

Tested on: adult cat fleas (Ctenocephalides felis)
Assay: Ctenocephalides felis in-vitro contact test, adult cat flea
Assay type: in vivo
Settings: 5 μg/cm^2 (=500 g/ha), after 48 hours
Outline: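 After 48 h of room-temperature exposure in tubes whose walls carried dried compound residue (5 μg/cm^2, from 900 ppm acetone solution), adult cat fleas (5-10 per tube) were heat-challenged at 45-50° C up to 5 min. Fleas unable to climb away were counted dead or moribund, expressed as % efficacy.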

SMILES	efficacy (fleas dead or moribund) [%]
C[C@H](NC(=O)c1cc(Br)cc(OC(F)F)c1)c1ncnn1-c1cc(C(N)=O)ncn1 [I-51]	100
CNC(=O)c1cc(-n2ncnc2[C@H](C)NC(=O)c2cc(Cl)cc(OC(F)(F)F)c2)ncn1 [I-73]	100

Tested on: larvae of the banded cucumber beetle (Diabrotica balteata)
Assay: Diabrotica balteata spray test
Assay type: in vivo
Settings: 168 h, 100 g/ha (=32 μg/well), after 7 days, read-out: efficacy (seedling growth)
Outline: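 Efficacy is seedling survival after 7 days, where 0% means no seedlings grew and 100% means growth equal to untreated, uninfested controls. Wheat seedlings, germinated on agar for 1 day, were sprayed with the aqueous emulsifier dilution (acetone/DMF solvent) and then exposed to 10–20 banded cucumber beetle larvae.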

SMILES	pest or weed control at 32 µg/disc, 100 g/ha [%]
C[C@H](NC(=O)c1cc(Br)cc(OC(F)F)c1)c1ncnn1-c1cc(C(N)=O)ncn1 [I-51]	100
CNC(=O)c1cc(-n2ncnc2[C@H](C)NC(=O)c2cc(Cl)cc(OC(F)(F)F)c2)ncn1 [I-73]	100

Tested on: adult brown dog ticks (Rhipicephalus sanguineus)
Assay: Rhipicephalus sanguineus in-vitro contact test, adult brown dog ticks
Assay type: in vivo
Settings: 48 h, read-out: efficacy (ticks dead or moribund)
Outline: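 Contact exposure: dried compound film inside glass tubes, dose 5 μg/cm^2 at 900 ppm, 5-10 adults per tube at room temperature. Scored at 48 h via a heat-escape test on a 45-50° C plate for up to 5 min.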

SMILES	pest or weed control at 5 µg/cm2, 500 g/ha [%]
C[C@H](NC(=O)c1cc(Br)cc(OC(F)F)c1)c1ncnn1-c1cc(C(N)=O)ncn1 [I-51]	100
CNC(=O)c1cc(-n2ncnc2[C@H](C)NC(=O)c2cc(Cl)cc(OC(F)(F)F)c2)ncn1 [I-73]	100
